Earlier results as cited in patent US6607711B2, “Mouth hygienic composition for the treatment of halitosis” (priority 1997, dated 2003).

Settings: amount in grams of the compound which can be dissolved per gram solvent (H2O)

With [Cl-].[Cl-].[Zn+2] [Zinc chloride] as the compound, how does the “Solubility (g/g H2O)” value read?
Its value is 4.3 g/g H2O.
